pEC50: −log10 of the molar value. Like-named read-outs stand apart in the source and are kept apart here. Marks after values point to notes of the source that are not given here.
Assays:
THP-1 cells [1] = tested on: THP-1 cells
Description: We proceeded to perform some related to the proliferative stimulation of the peptide in presence of other divalent cations such as magnesium, copper, and manganese.

CD4 co-receptor = details: With-A
Method: (§1) The Analysis was performed by flow cytometry, using fluorescence intensity histograms, which allowed us to identify three regions: expression negative, low and high.

CD8 co-receptor = details: With-A
Method: as §1

thymocytes = tested on: thymocytes
Method: For that, we made organ culture in agarose gels and a filter with pores of 5 micron to prevent migration of the thymocytes. The Apoptosis was quantified with 7AAD and it was evaluated by flow cytometry.

LR.4 cells = tested on: LR.4 cells
Description: (§2) The cellular viability that was quantified by the MTT method, indicates the mitochondrial activity.

BMK-16myc cells = tested on: BMK-16myc cells
Description: We used BMK-16myc cells which are baby mouse kidney cells immortalized with genes of 16 protein of the human papilloma virus (HPV) and the myc gene, which grow in mouse, are highly invasive and produce metastases rapidly. One million cells were implanted subcutaneously in the back of each mouse. […] Subsequently, the animals were sacrificed and the tumors under the back skin as well as thymus, spleen, liver and kidney were collected for histopathological examination.
as §2

THP-1 cells [2] = details: IMMP 10^−10M, no cortisone

Substance: Peptide LEDGPKFL + Zinc [IMMP]
- Concentration at which plateau / maximum response of stimulation is reached (THP-1 cells [1]): 10-10 M
- Increase of potency by adding the ion (times) (THP-1 cells [1]): ~500 times
- Increase of the potency of the peptide by zinc (times) (THP-1 cells [1]): more than 200 times
- pEC50 (THP-1 cells [1]; read-out: Effective concentration 50): 11.00
- Expression Intensity of CD4, Fluorescence, High (CD4 co-receptor; [IMMP] 10^−6 M): 193.0 ± 3.3 arbitrary fluorescence intensity units
- Expression Intensity of CD4, Fluorescence, Low (CD4 co-receptor; [IMMP] 10^−6 M): 72.9 ± 7.4 arbitrary fluorescence intensity units
- Expression Intensity of CD4, Fluorescence, Negative (CD4 co-receptor; [IMMP] 10^−6 M): 5.0 ± 0.9 arbitrary fluorescence intensity units
- Expression Intensity of CD4, Fluorescence, High (CD4 co-receptor; [IMMP] 10^−7 M): 188.4 ± 4.9 arbitrary fluorescence intensity units
- Expression Intensity of CD4, Fluorescence, Low (CD4 co-receptor; [IMMP] 10^−7 M): 68.6 ± 8.0 arbitrary fluorescence intensity units
- Expression Intensity of CD4, Fluorescence, Negative (CD4 co-receptor; [IMMP] 10^−7 M): 4.5 ± 0.9 arbitrary fluorescence intensity units
- Expression Intensity of CD4, Fluorescence, High (CD4 co-receptor; [IMMP] 10^−8 M): 181.1 ± 4.7 arbitrary fluorescence intensity units
- Expression Intensity of CD4, Fluorescence, Low (CD4 co-receptor; [IMMP] 10^−8 M): 71.0 ± 6.4 arbitrary fluorescence intensity units
- Expression Intensity of CD4, Fluorescence, Negative (CD4 co-receptor; [IMMP] 10^−8 M): 4.7 ± 0.3 arbitrary fluorescence intensity units
- Expression Intensity of CD4, Fluorescence, High (CD4 co-receptor; [IMMP] 10^−9 M): 196.1 ± 5.4 arbitrary fluorescence intensity units
- Expression Intensity of CD4, Fluorescence, Low (CD4 co-receptor; [IMMP] 10^−9 M): 69.5 ± 5.0 arbitrary fluorescence intensity units
- Expression Intensity of CD4, Fluorescence, Negative (CD4 co-receptor; [IMMP] 10^−9 M): 4.5 ± 0.1 arbitrary fluorescence intensity units
- Expression Intensity of CD4, Fluorescence, High (CD4 co-receptor; [IMMP] 10^−10 M): 194.1 ± 10.0 arbitrary fluorescence intensity units
- Expression Intensity of CD4, Fluorescence, Low (CD4 co-receptor; [IMMP] 10^−10 M): 69.6 ± 5.2 arbitrary fluorescence intensity units
- Expression Intensity of CD4, Fluorescence, Negative (CD4 co-receptor; [IMMP] 10^−10 M): 5.0 ± 0.4 arbitrary fluorescence intensity units
- Expression Intensity of CD4, Fluorescence, High (CD4 co-receptor; [IMMP] 10^−11 M): 196.1 ± 5.4 arbitrary fluorescence intensity units
- Expression Intensity of CD4, Fluorescence, Low (CD4 co-receptor; [IMMP] 10^−11 M): 69.5 ± 7.0 arbitrary fluorescence intensity units
- Expression Intensity of CD4, Fluorescence, Negative (CD4 co-receptor; [IMMP] 10^−11 M): 4.5 ± 0.1 arbitrary fluorescence intensity units
- Expression Intensity of CD4, Fluorescence, High (CD4 co-receptor; [IMMP] 10^−12 M): 194.1 ± 7.3 arbitrary fluorescence intensity units
- Expression Intensity of CD4, Fluorescence, Low (CD4 co-receptor; [IMMP] 10^−12 M): 69.6 ± 7.2 arbitrary fluorescence intensity units
- Expression Intensity of CD4, Fluorescence, Negative (CD4 co-receptor; [IMMP] 10^−12 M): 5.0 ± 0.4 arbitrary fluorescence intensity units
- Expression Intensity of CD8, Fluorescence, High (CD8 co-receptor; [IMMP] 10^−6 M): 135.9 ± 3.3 arbitrary fluorescence intensity units
- Expression Intensity of CD8, Fluorescence, Low (CD8 co-receptor; [IMMP] 10^−6 M): 49.9 ± 37.4 arbitrary fluorescence intensity units
- Expression Intensity of CD8, Fluorescence, Negative (CD8 co-receptor; [IMMP] 10^−6 M): 3.1 ± 0.5 arbitrary fluorescence intensity units
- Expression Intensity of CD8, Fluorescence, High (CD8 co-receptor; [IMMP] 10^−7 M): 134.5 ± 4.9 arbitrary fluorescence intensity units
- Expression Intensity of CD8, Fluorescence, Low (CD8 co-receptor; [IMMP] 10^−7 M): 55.1 ± 4.9 arbitrary fluorescence intensity units
- Expression Intensity of CD8, Fluorescence, Negative (CD8 co-receptor; [IMMP] 10^−7 M): 2.4 ± 0.9 arbitrary fluorescence intensity units
- Expression Intensity of CD8, Fluorescence, High (CD8 co-receptor; [IMMP] 10^−8 M): 126.1 ± 4.7 arbitrary fluorescence intensity units
- Expression Intensity of CD8, Fluorescence, Low (CD8 co-receptor; [IMMP] 10^−8 M): 39.2 ± 5.4 arbitrary fluorescence intensity units
- Expression Intensity of CD8, Fluorescence, Negative (CD8 co-receptor; [IMMP] 10^−8 M): 3.2 ± 0.3 arbitrary fluorescence intensity units
- Expression Intensity of CD8, Fluorescence, High (CD8 co-receptor; [IMMP] 10^−9 M): 139.8 ± 5.4 arbitrary fluorescence intensity units
- Expression Intensity of CD8, Fluorescence, Low (CD8 co-receptor; [IMMP] 10^−9 M): 32.7 ± 5.0 arbitrary fluorescence intensity units
- Expression Intensity of CD8, Fluorescence, Negative (CD8 co-receptor; [IMMP] 10^−9 M): 3.2 ± 0.1 arbitrary fluorescence intensity units
- Expression Intensity of CD8, Fluorescence, High (CD8 co-receptor; [IMMP] 10^−10 M): 126.5 ± 7.3 arbitrary fluorescence intensity units
- Expression Intensity of CD8, Fluorescence, Low (CD8 co-receptor; [IMMP] 10^−10 M): 45.8 ± 3.2 arbitrary fluorescence intensity units
- Expression Intensity of CD8, Fluorescence, Negative (CD8 co-receptor; [IMMP] 10^−10 M): 4.1 ± 0.4 arbitrary fluorescence intensity units
- Expression Intensity of CD8, Fluorescence, High (CD8 co-receptor; [IMMP] 10^−11 M): 196.1 ± 5.4 arbitrary fluorescence intensity units
- Expression Intensity of CD8, Fluorescence, Low (CD8 co-receptor; [IMMP] 10^−11 M): 56.5 ± 4.0 arbitrary fluorescence intensity units
- Expression Intensity of CD8, Fluorescence, Negative (CD8 co-receptor; [IMMP] 10^−11 M): 3.5 ± 0.1 arbitrary fluorescence intensity units
- Expression Intensity of CD8, Fluorescence, High (CD8 co-receptor; [IMMP] 10^−12 M): 194.1 ± 7.3 arbitrary fluorescence intensity units
- Expression Intensity of CD8, Fluorescence, Low (CD8 co-receptor; [IMMP] 10^−12 M): 58.1 ± 3.2 arbitrary fluorescence intensity units
- Expression Intensity of CD8, Fluorescence, Negative (CD8 co-receptor; [IMMP] 10^−12 M): 2.0 ± 0.4 arbitrary fluorescence intensity units
- Thymocytes in apoptosis (%) (thymocytes; [IMMP] 10^−8): 1.6 ± 0.8 %
- Thymocytes in apoptosis (%) (thymocytes; [IMMP] 10^−9): 1.7 ± 0.7 %
- Thymocytes in apoptosis (%) (thymocytes; [IMMP] 10^−10): 1.5 ± 0.09 %
- Thymocytes in apoptosis (%) (thymocytes; [IMMP] 10^−11): 2.5 ± 0.91%
- Increase of LR.4 cells (LR.4 cells): 20%
- Cells proliferation (control percent, MTT) (LR.4 cells; IMMP (M) −8): 115 ± 5.4 %
- Cells proliferation (control percent, MTT) (LR.4 cells; IMMP (M) −9): 118 ± 6.7 %
- Cells proliferation (control percent, MTT) (LR.4 cells; IMMP (M) −10): 120 ± 8.5 %
- Cells proliferation (control percent, MTT) (LR.4 cells; IMMP (M) −11): 110 ± 10.9 %
- Cells proliferation (control percent, MTT) (LR.4 cells; IMMP (M) −12): 104 ± 4.3%
- Difference with respect to control (BMK-16myc cells): not observed any difference with respect to control
- Cells proliferation (control percent, MTT) (BMK-16myc cells; IMMP (M) −8): 102 ± 2.9%
- Cells proliferation (control percent, MTT) (BMK-16myc cells; IMMP (M) −9): 104 ± 3.1%
- Cells proliferation (control percent, MTT) (BMK-16myc cells; IMMP (M) −10): 102 ± 3.5%
- Cells proliferation (control percent, MTT) (BMK-16myc cells; IMMP (M) −11): 103 ± 2.7%
- Cells proliferation (control percent, MTT) (BMK-16myc cells; IMMP (M) −12): 102 ± 3.1%
- Cell Viability (% with respect to the control) (THP-1 cells [2]): 180 ± 5%
- Body weight (control percent) (LR.4 lymphoma; IMMP alone, no tumor, week 0): 100 ± 2%
- Survival (percent of live animals) (LR.4 lymphoma; IMMP alone, no tumor, week 0): 100%
- Body weight (control percent) (LR.4 lymphoma; IMMP alone, no tumor, week 1): 100 ± 4%
- Survival (percent of live animals) (LR.4 lymphoma; IMMP alone, no tumor, week 1): 100%
- Body weight (control percent) (LR.4 lymphoma; IMMP alone, no tumor, week 2): 100 ± 5%
- Survival (percent of live animals) (LR.4 lymphoma; IMMP alone, no tumor, week 2): 100%
- Body weight (control percent) (LR.4 lymphoma; IMMP alone, no tumor, week 3): 100 ± 3%
- Survival (percent of live animals) (LR.4 lymphoma; IMMP alone, no tumor, week 3): 100%
- Body weight (control percent) (LR.4 lymphoma; IMMP alone, no tumor, week 4): 100 ± 3%
- Survival (percent of live animals) (LR.4 lymphoma; IMMP alone, no tumor, week 4): 100%
- Body weight (control percent) (LR.4 lymphoma; IMMP alone, no tumor, week 5): 100 ± 4%
- Survival (percent of live animals) (LR.4 lymphoma; IMMP alone, no tumor, week 5): 100%
- Body weight (control percent) (LR.4 lymphoma; IMMP alone, no tumor, week 6): 100 ± 3%
- Survival (percent of live animals) (LR.4 lymphoma; IMMP alone, no tumor, week 6): 100%
- Body weight (control percent) (LR.4 lymphoma; IMMP alone, no tumor, week 7): 100 ± 5%
- Survival (percent of live animals) (LR.4 lymphoma; IMMP alone, no tumor, week 7): 100%
- Survival (percent of live animals) (LR.4 lymphoma; IMMP alone, no tumor, week 8): 100%
- Survival (percent of live animals) (LR.4 lymphoma; IMMP alone, no tumor, week 9): 100%
- Survival (percent of live animals) (LR.4 lymphoma; IMMP alone, no tumor, week 10): 100%
- Survival (percent of live animals) (LR.4 lymphoma; IMMP alone, no tumor, week 11): 100%
- Survival (percent of live animals) (LR.4 lymphoma; IMMP alone, no tumor, week 12): 100%
- Survival (percent of live animals) (LR.4 lymphoma; IMMP alone, no tumor, week 13): 100%
- Survival (percent of live animals) (LR.4 lymphoma; IMMP alone, no tumor, week 14): 100%
- Body weight (control percent) (LR.4 lymphoma; LR.4 + IMMP, week 0): 100 ± 2%
- Survival (percent of live animals) (LR.4 lymphoma; LR.4 + IMMP, week 0): 100%
- Body weight (control percent) (LR.4 lymphoma; LR.4 + IMMP, week 1): 101 ± 4%
- Survival (percent of live animals) (LR.4 lymphoma; LR.4 + IMMP, week 1): 100%
- Body weight (control percent) (LR.4 lymphoma; LR.4 + IMMP, week 2): 116 ± 6 %
- Survival (percent of live animals) (LR.4 lymphoma; LR.4 + IMMP, week 2): 100%
- Body weight (control percent) (LR.4 lymphoma; LR.4 + IMMP, week 3): 125 ± 8 %
- Survival (percent of live animals) (LR.4 lymphoma; LR.4 + IMMP, week 3): 100%
- Body weight (control percent) (LR.4 lymphoma; LR.4 + IMMP, week 4): 126 ± 8 %
- Survival (percent of live animals) (LR.4 lymphoma; LR.4 + IMMP, week 4): 100%
- Body weight (control percent) (LR.4 lymphoma; LR.4 + IMMP, week 5): 154 ± 11 %
- Survival (percent of live animals) (LR.4 lymphoma; LR.4 + IMMP, week 5): 100%
- Body weight (control percent) (LR.4 lymphoma; LR.4 + IMMP, week 6): 152 ± 12 %
- Survival (percent of live animals) (LR.4 lymphoma; LR.4 + IMMP, week 6): 100%
- Body weight (control percent) (LR.4 lymphoma; LR.4 + IMMP, week 7): 150 ± 11 %
- Survival (percent of live animals) (LR.4 lymphoma; LR.4 + IMMP, week 7): 100%
- Survival (percent of live animals) (LR.4 lymphoma; LR.4 + IMMP, week 8): 100%
- Survival (percent of live animals) (LR.4 lymphoma; LR.4 + IMMP, week 9): 67%
- Survival (percent of live animals) (LR.4 lymphoma; LR.4 + IMMP, week 10): 50%
- Survival (percent of live animals) (LR.4 lymphoma; LR.4 + IMMP, week 11): 34%
- Survival (percent of live animals) (LR.4 lymphoma; LR.4 + IMMP, week 12): 16%
- Survival (percent of live animals) (LR.4 lymphoma; LR.4 + IMMP, week 13): 16%
- Survival (percent of live animals) (LR.4 lymphoma; LR.4 + IMMP, week 14): 0%
- Decrease of tumor growth (LR.4 lymphoma; last two weeks): about 33%
- Gain in survival at 50% (LR.4 lymphoma; mouse, in vivo): greater than 4 weeks
- Time all animals kept alive longer than the untreated group (LR.4 lymphoma; mouse, in vivo): 5 weeks
- Increase in blood platelets (platelets; normal animals): ~100%
- Platelets (platelets; normal rats): 1560 ± 248* 10^3/μL
